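Where inhibition never reached the appropriate level, the endpoint shown equals the highest concentration tested. Otherwise, values were interpolated linearly from a five-concentration, 48-hour dose response in 96-well plates. The concentration for 50% growth inhibition is given as GI50. TGI: concentration producing complete growth inhibition.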 A value given as a limit tells only on which side of the number the result lay.

Holding throughout (experiment): NCI-60 cell line screen, 48 h
The subject of experiment [1] is MDA-MB-231 breast.
In experiment [2] the test system is T-47D breast.
Experiment [3] concerns DU-145 prostate.
Experiment [4] relates to SF-295 CNS.
For experiment [5], the system named is HCT-116 colon.
Experiment [6] relates to NCI-H23 lung.
The test system of experiment [7] is HS 578T breast.
Experiment [8] deals with OVCAR-5 ovarian.

For `OC(CN1CCCC2CCCCC21)c1cc2ccccc2c2ccccc12` (centres undefined), the GI50 was 1.69 µM in experiment [1]; 2.16 µM in experiment [2]; 3.73 µM in experiment [3]; 1.45 µM in experiment [4]; 1.29 µM in experiment [5]; 2.14 µM in experiment [6]. For the same molecule, the GI50 in experiment [7] is 2.37 µM; in experiment [8] it was 1.95 µM. Besides, the TGI came out at 4.06 µM in experiment [1]; 5.71 µM in experiment [2]; 14 µM in experiment [3]; 3.21 µM in experiment [4]; 2.56 µM in experiment [5]; 7.14 µM in experiment [6]. Also, the TGI in experiment [7] came out at 7.46 µM; in experiment [8], 5.64 µM.

For `O=C(NCc1ccco1)C1CCN(S(=O)(=O)c2ccc(Cl)cc2)CC1`, the GI50 in experiment [1] is more than 100 µM; in experiment [2], more than 100 µM; in experiment [3], more than 100 µM; in experiment [4], 81.6 µM; in experiment [5], 59.8 µM; in experiment [6], more than 100 µM. In addition, the GI50 in experiment [7] and in experiment [8] was more than 100 µM in each case. Besides, the TGI in experiment [1], in experiment [2], in experiment [3], in experiment [4], in experiment [5] and in experiment [6] was more than 100 µM in each case. Besides, the TGI in experiment [7] and in experiment [8] was more than 100 µM in each case.

`COc1cccc(N2CCN(c3ncnc4cc[nH]c34)CC2)c1`: the GI50 in experiment [1] is 79.9 µM; in experiment [2] it was 2.92 µM; in experiment [3] it was 43.2 µM; in experiment [4] it was 1.57 µM; in experiment [5], 3.67 µM; in experiment [6], 3.47 µM. The GI50 is 35.7 µM in experiment [7] and 43.6 µM in experiment [8]. Also, the TGI in experiment [1] is more than 100 µM; in experiment [2], 44.1 µM; in experiment [3] it was more than 100 µM; in experiment [4] it was 43 µM; in experiment [5], more than 100 µM; in experiment [6] it was more than 100 µM. Also, the TGI in experiment [7] and in experiment [8] was more than 100 µM in each case.

For `CC1=NN(c2cccc(Cl)c2)C(=O)/C1=C\C=C\c1ccccc1`, the GI50 in experiment [1] was 2.27 µM; in experiment [2], 2.29 µM; in experiment [3] it was 2.91 µM; in experiment [4], 3.17 µM; in experiment [5], 1.56 µM; in experiment [6], 2.32 µM. Also, the GI50 in experiment [7] was 1.65 µM; in experiment [8] it was 2.81 µM. In addition, the TGI in experiment [1] came out at 7.47 µM; in experiment [2], 39.5 µM; in experiment [3], 12.1 µM; in experiment [4] it was 67.8 µM; in experiment [5], 3.09 µM; in experiment [6] it was 6.13 µM. Further, the TGI in experiment [7] came out at 9.61 µM; in experiment [8], 7.83 µM.

Consider `Cc1ccc(-c2c3c(nn2-c2ccc(S(=O)(=O)NC(=O)NC4CCCCC4)cc2)-c2ccccc2C3)cc1`, for which the GI50 in experiment [1] is 21 µM; in experiment [2], 25.7 µM; in experiment [3], 14.3 µM; in experiment [4], 18.7 µM; in experiment [5] it was 3.3 µM; in experiment [6] it was 10.9 µM. Moreover, the results for the GI50 in experiment [7] and in experiment [8] were 20.5 µM and 29.2 µM, respectively. For the same molecule, the TGI in experiment [1] was 43.2 µM; in experiment [2] it was more than 100 µM; in experiment [3], 28.7 µM; in experiment [4], 48.7 µM; in experiment [5], 15.9 µM; in experiment [6] it was 27.1 µM. For the same molecule, the results for the TGI in experiment [7] and in experiment [8] were 60.4 µM and 70.3 µM, respectively.

`COC(=O)c1c2c(c(C)[n+]([O-])c1C)C(=O)C(NCc1ccc(F)cc1)=CC2=O`: the GI50 in experiment [1] is 1.46 µM; in experiment [2], 1.72 µM; in experiment [3], 2.11 µM; in experiment [4], 1.42 µM; in experiment [5] it was 0.957 µM; in experiment [6] it was 1.33 µM. Also, the GI50 in experiment [7] was 2.47 µM; in experiment [8] it was 1.8 µM. Moreover, the TGI amounted to 4.36 µM in experiment [1]; 4.23 µM in experiment [2]; 4.76 µM in experiment [3]; 3 µM in experiment [4]; 6.28 µM in experiment [5]; 3.79 µM in experiment [6]. Moreover, the TGI is 8.03 µM in experiment [7] and 3.59 µM in experiment [8].

With `CC(C)c1[nH]nc2c(NCc3ccc(-c4ccccn4)cc3)nc(SCCN(C)C)nc12`, the GI50 in experiment [1] is 0.0257 µM; in experiment [2] it was 0.0319 µM; in experiment [3], 0.138 µM; in experiment [4] it was 0.0799 µM; in experiment [5] it was 0.0357 µM; in experiment [6], 0.0646 µM. For the same molecule, the GI50 in experiment [7] is 0.0271 µM; in experiment [8], 0.0572 µM. The TGI in experiment [1] turned out to be 8.3 µM; in experiment [2], 2.69 µM; in experiment [3] it was 12.4 µM; in experiment [4], 1.92 µM; in experiment [5] it was 10.8 µM; in experiment [6], 0.598 µM. Further, the TGI is 9.4 µM in experiment [7] and 11.2 µM in experiment [8].

As for `COc1cc2c(NC3CCN(C(C)C)CC3)nc(C3CCCCC3)nc2cc1OCCCN1CCCC1`, the GI50 in experiment [1] is 2.61 µM; in experiment [2], 2.54 µM; in experiment [3], 4.75 µM; in experiment [4], 2.52 µM; in experiment [5] it was 3.08 µM; in experiment [6], 10.8 µM. The figures for the GI50 in experiment [7] and in experiment [8] were 4.11 µM and 8.87 µM, respectively. Further, the TGI stood at 9.44 µM in experiment [1]; 7.08 µM in experiment [2]; 17.1 µM in experiment [3]; 6.55 µM in experiment [4]; 14.1 µM in experiment [5]; 25.5 µM in experiment [6]. Also, the TGI in experiment [7] came to 22.8 µM; in experiment [8], 22.2 µM.

On to `O=C(N=Nc1c(Cl)c(O)c2ccccc2c1O)C(=O)Nc1cccc(C(F)(F)F)c1`, for which the GI50 was 1.6 µM in experiment [1]; 4.92 µM in experiment [2]; 2.73 µM in experiment [3]; 6.05 µM in experiment [4]; 1.83 µM in experiment [5]; 2.67 µM in experiment [6]. The GI50 in experiment [7] was 2.6 µM; in experiment [8], 14.7 µM. Also, the TGI in experiment [1] is 12.9 µM; in experiment [2], 41.3 µM; in experiment [3], 5.15 µM; in experiment [4], 19.7 µM; in experiment [5], 3.88 µM; in experiment [6], 10.2 µM. The TGI in experiment [7] came out at 8.6 µM; in experiment [8], 28.6 µM.

For the origin of these results see PubChem BioAssay (NCI).
